Measured values published in ChEMBL document CHEMBL1136680, “Synthesis and biological activities of phthalocyanine-estradiol conjugates” (2003).
Activity calls are given as the source filed them. No cut-off for these calls is given here.

What was measured:
EMT6 [1] = test: In vitro phototoxicity in EMT-6 cells at 1 uM after 24 hr r MTT assay; format: functional, Mus musculus
EMT6 [2] = test: In vitro phototoxicity in EMT-6 cells at 1 uM after 6 hr MTT assay; format: functional, Mus musculus
[3] = target: Estrogen receptor (Homo sapiens) (UniProt Q92731+P03372); test: Displacement of [3H]estradiol from estrogen receptor; format: protein assay; details: tested as the Zn salt or complex
EMT6 [4] = test: In vitro phototoxicity in EMT-6 cells at 1 uM after 24 hr r MTT assay; Not active; format: functional, cell-based; details: Mus musculus, tested as the Zn salt or complex
EMT6 [5] = test: In vitro phototoxicity in EMT-6 cells at 1 uM after 6 hr MTT assay; Not active; format: functional, cell-based; details: Mus musculus, tested as the Zn salt or complex

Structure (SMILES)	LD90 (EMT6 [1])	LD90 (EMT6 [2])	relative binding affinity (RBA) [3]	LD90 (EMT6 [4])	LD90 (EMT6 [5])
C[C@]12CC[C@@H]3c4ccc(O)cc4CC[C@H]3[C@@H]1CC[C@]2(O)C#Cc1ccc2c(c1)-c1nc-2nc2[nH]c(nc3nc(nc4[nH]c(n1)c1ccc(S(=O)(=O)[O-])cc41)-c1ccc(S(=O)(=O)[O-])cc1-3)c1cc(S(=O)(=O)[O-])ccc21.[Na+].[Na+].[Na+].[Zn]	5.1 J cm**-2	7 J cm**-2	1.64		
CCCCc1ccc2c(c1)-c1nc-2nc2[nH]c(nc3nc(nc4[nH]c(n1)c1ccc(CCCC)cc41)-c1cccc(C#C[C@@]4(O)CC[C@H]5[C@@H]6CCc7cc(O)ccc7[C@H]6CC[C@@]54C)c1-3)c1ccc(CCCC)cc21			12.9	inactive	inactive
C[C@]12CC[C@@H]3c4ccc(O)cc4CC[C@H]3[C@@H]1CC[C@]2(O)c1ccc(C#CC#Cc2ccc3c(c2)-c2nc-3nc3[nH]c(nc4nc(nc5[nH]c(n2)c2ccc(S(=O)(=O)[O-])cc52)-c2ccc(S(=O)(=O)[O-])cc2-4)c2ccc(S(=O)(=O)[O-])cc32)cc1.[Na+].[Na+].[Na+].[Zn]	5.3 J cm**-2	10.4 J cm**-2	1.22		
CCCCc1ccc2cc3c(cc2c1)-c1nc-3nc2[nH]c(nc3nc(nc4[nH]c(n1)c1cc5ccc(CCCC)cc5cc41)-c1ccc(C#C[C@@]4(O)CC[C@H]5[C@@H]6CCc7cc(O)ccc7[C@H]6CC[C@@]54C)cc1-3)c1cc3ccc(CCCC)cc3cc21			10.4	inactive	inactive
CCCCc1ccc2c(c1)-c1nc-2nc2[nH]c(nc3nc(nc4[nH]c(n1)c1ccc(CCCC)cc41)-c1ccc(C#C[C@@]4(O)CC[C@H]5[C@@H]6CCc7cc(O)ccc7[C@H]6CC[C@@]54C)cc1-3)c1ccc(CCCC)cc21			1.35	inactive	inactive
CCCCc1ccc2c(c1)-c1nc-2nc2[nH]c(nc3nc(nc4[nH]c(n1)c1ccc(CCCC)cc41)-c1ccc(C#CC#Cc4cccc([C@@]5(O)CC[C@H]6[C@@H]7CCc8cc(O)ccc8[C@H]7CC[C@@]65C)c4)cc1-3)c1ccc(CCCC)cc21			8.54	inactive	inactive
C[C@]12CC[C@@H]3c4ccc(O)cc4CC[C@H]3[C@@H]1CC[C@]2(O)C#Cc1cccc2cc3c(cc12)-c1nc-3nc2[nH]c(nc3nc(nc4[nH]c(n1)c1ccc(S(=O)(=O)[O-])cc41)-c1ccc(S(=O)(=O)[O-])cc1-3)c1cc(S(=O)(=O)[O-])ccc21.[Na+].[Na+].[Na+].[Zn]	3 J cm**-2	12 J cm**-2	1.24		
C[C@]12CC[C@@H]3c4ccc(O)cc4CC[C@H]3[C@@H]1CC[C@]2(O)CCCCC#CC#Cc1cccc2c1-c1nc-2nc2[nH]c(nc3nc(nc4[nH]c(n1)c1ccc(S(=O)(=O)[O-])cc41)-c1ccc(S(=O)(=O)[O-])cc1-3)c1ccc(S(=O)(=O)[O-])cc21.[Na+].[Na+].[Na+].[Zn]	4.3 J cm**-2	12 J cm**-2	0.56		
C[C@]12CC[C@@H]3c4ccc(O)cc4CC[C@H]3[C@@H]1CC[C@]2(O)c1cccc(C#CC#Cc2ccc3c(c2)-c2nc-3nc3[nH]c(nc4nc(nc5[nH]c(n2)c2ccc(S(=O)(=O)[O-])cc52)-c2ccc(S(=O)(=O)[O-])cc2-4)c2ccc(S(=O)(=O)[O-])cc32)c1.[Na+].[Na+].[Na+].[Zn]	4 J cm**-2	10.4 J cm**-2	0.3		
CCCCc1ccc2c(c1)-c1nc-2nc2[nH]c(nc3nc(nc4[nH]c(n1)c1ccc(CCCC)cc41)-c1ccc(C#CC#CCCCC[C@@]4(O)CC[C@H]5[C@@H]6CCc7cc(O)ccc7[C@H]6CC[C@@]54C)cc1-3)c1ccc(CCCC)cc21			3.08	inactive	inactive
C[C@]12CC[C@@H]3c4ccc(O)cc4CC[C@H]3[C@@H]1CC[C@]2(O)CCCCC#CC#Cc1ccc2c(c1)-c1nc-2nc2[nH]c(nc3nc(nc4[nH]c(n1)c1ccc(S(=O)(=O)[O-])cc41)-c1ccc(S(=O)(=O)[O-])cc1-3)c1ccc(S(=O)(=O)[O-])cc21.[Na+].[Na+].[Na+].[Zn]	2.9 J cm**-2	7.3 J cm**-2	1.26		
